{"source": "patent US20230414588A1", "about": "“COMPOSITIONS AND METHODS FOR TREATING PATIENTS WITH AMYOTROPHIC LATERAL SCLEROSIS (ALS)” (CURASEN THERAPEUTICS, INC., priority 2022, published 2023)", "key": {"[1]": {"assay": "Peripheral effects (heart rate by ECG, potassium, glucose) of Compound 03-5 with or without nadolol in healthy volunteers", "type": "in vivo, human", "procedure": "Healthy volunteers were enrolled into 2 cohorts in a study to undertake within-subject dose titration of Compound 03-5 and/or nadolol in order to explore doses/dose combinations that mitigate peripheral effects of Compound 03-5, e.g. on heart rate, while preserving possible central effects of Compound 03-5 on cerebral perfusion and pupillary light reflex.\nEight healthy subjects aged 18-50 years were enrolled into Cohort D1 and received escalating doses of Compound 03-5 (3-12 mg) administered once daily 2 hours follow pre-administration of nadolol (1-40 mg). On all dosing days, study drug(s) were administered orally after an overnight fast of at least 8 hours.\n(§1) In Cohort D2, 8 healthy volunteers aged 55-75 years were admitted on Day −1 for a 5-day confinement period at the research facility. During this confinement, subjects received escalating doses of open label Compound 03-5 (1-10 mg) once-daily from Day 1 through Day 3 2 hours after pre-administration of open-label nadolol (3 mg) one each for the 3 dosing days according to the schematic in FIG. 17. Subjects remained in-residency until all study procedures are completed on Day 4."}, "[2]": {"assay": "CANTAB cognition battery, Cohort D2 (Compound 03-5 with 3 mg nadolol)", "type": "in vivo, human", "procedure": "as §1\nCompound 03-5 dose administration. Compound 03-5 was administered as escalating doses on Day 1 (1 mg), Day 2 (3 mg) and Day 3 (10 mg). CANTAB was conducted twice in all subjects on the day prior to start of dosing (Day −1) to familiarize subjects with the platform, and prior to dosing and approximately 3 hours after Compound 03-5 administration on Days 1, 2, and 3."}, "[3]": {"assay": "Cerebral blood flow after a single dose of Compound 03-5 with or without nadolol", "type": "in vivo, human", "settings": "single dose Compound 03-5 in the absence or presence of 3 mg nadolol", "description": "Data are plotted as mean (±SEM) percent change in cerebral blood flow from baseline in brain regions of interest for movement (the precentral gyrus) and mood, anhedonia and cognition (hippocampus, thalamus, amygdala)."}, "[4]": {"assay": "Facial Expression Recognition Task (FERT), crossover study of clenbuterol with 1 mg nadolol vs placebo", "type": "in vivo, human", "settings": "clenbuterol co-administered with low-dose nadolol vs placebo; patients", "description": "The Facial Expression Recognition Task (FERT) assesses the recognition of facial emotions. […] Different intensity levels of each emotion are presented, which increases the ambiguity of the facial expression and the sensitivity of the task."}, "[5]": {"settings": "80 μg clenbuterol alone, single dose, patients"}, "[6]": {"assay": "Immediate word recall test (CANTAB), crossover study of clenbuterol with 1 mg nadolol vs placebo", "type": "in vivo, human", "settings": "80 μg clenbuterol with 1 mg nadolol once daily 14 days vs placebo; patients with neurodegenerative disorders", "description": "The immediate word recall test measures the ability to encode and subsequently retrieve verbal information. Eighteen (18) words are presented, and subjects are subsequently asked to recall them; this is repeated 2 times."}, "[7]": {"assay": "Visual verbal learning test (VVLT)", "type": "in vivo, human", "settings": "single dose; crossover study with placebo", "procedure": "The visual verbal learning test (VVLT) is a test for learning and memory (de Haas 2009). Subjects are presented 30 words on a screen, one at a time, for 1 second with a 1-second interval between words over a total of […]. This is repeated in 3 trials. After each trial, subjects are asked to recall as many words as they can. After the third trial, there is a delay of 2.5 hours and subjects are then tested once for delayed recall. […] The effect for clenbuterol is an improvement in approximately 1.5 to 2 correctly recalled words, which is clinically meaningful. Since this was a crossover study, everyone who completed Part A was dosed with the 3 agents plus placebo."}, "[8]": {"assay": "Adaptive tracking test (visuomotor coordination and vigilance)", "type": "in vivo, human", "settings": "single dose 160 μg clenbuterol", "description": "Adaptive tracking measures visuomotor coordination and vigilance. In this test, the subject uses a joystick to move a small dot so that it stays within a continuously moving circle on a computer screen (Boland 1984). During the test, the speed of the circle is adjusted in response to the subject's ability to keep the dot in the circle, ensuring that the test is adapted to the individual subject. […] The improvement shown by subjects is in the same range as that seen with subjects treated with the acetylcholinesterase inhibitor donepezil, which is in clinical use for the treatment of mild to moderate AD (Groeneveld 2016)."}, "[9]": {"assay": "Cerebral blood flow / cerebral perfusion by MRI-ASL after clenbuterol (with or without nadolol) or pindolol", "settings": "for cerebral blood flow measured by MRI-ASL (FIG. 2): healthy volunteers, single dose, dose not stated in legend"}, "[10]": {"settings": "monotherapy Compound 03-5 0.3-6 mg, healthy volunteers"}}, "note": "“Also recorded” adds a separate entry of the source."}
{"smiles": "CC(C)(C)NC[C@H](O)c1cccc(C#N)n1", "note": "[Compound 03-5, (S)-6-(2-(tert-butylamino)-1-hydroxyethyl)picolinonitrile]", "values": [{"measurement": "mean maximum increase in heart rate", "setting": "[1]; 6 mg Compound 03-5 after pre-administration of 1 mg nadolol", "value": 7, "unit": "beats per minute"}, {"measurement": "blood potassium concentrations", "setting": "[1]; [10]", "value": "dose-dependent decreases"}, {"measurement": "heart rate, change from baseline (triplicate ECG)", "setting": "[1]; [10]", "value": "dose-dependent increases"}, {"measurement": "cognition, performance in CANTAB battery", "setting": "[2]; Cohort D2, Compound 03-5 1, 3 and 10 mg on Days 1, 2, 3 with 3 mg nadolol, healthy adults 55-75 years", "value": "Improvements in cognition; also recorded: improvements in performance"}, {"measurement": "cerebral blood flow from baseline (precentral gyrus, hippocampus, thalamus, amygdala)", "setting": "[3]", "value": "robust, global increases"}]}
{"smiles": "CC(C)(C)NCC(O)c1cc(Cl)c(N)c(Cl)c1", "note": "(centres unmarked) [clenbuterol]", "values": [{"measurement": "accuracy of correctly identifying happy facial expressions (FERT)", "setting": "[4]", "value": "statistically significant increase"}, {"measurement": "glucose in the blood, change from baseline", "setting": "[5]", "value": "increases"}, {"measurement": "heart rate, change from baseline", "setting": "[5]", "value": "increases"}, {"measurement": "potassium in the blood, change from baseline", "setting": "[5]", "value": "decreases"}, {"measurement": "number of words correctly recalled, immediate verbal recall", "setting": "[6]", "value": "statistically significant increase"}, {"measurement": "effect on VVLT / number of words recalled correctly", "setting": "[7]", "value": "improvements in cognition; also recorded: positive effects"}, {"measurement": "performance in adaptive tracking (percent time dot kept within moving circle)", "setting": "[8]", "value": "improved performance; also recorded: improves"}, {"measurement": "cognition as measured by adaptive tracking and word recall", "setting": "[8]; healthy subjects, preliminary data", "value": "improves cognition"}, {"measurement": "cerebral perfusion increase as measured by CBF", "setting": "[9]; clenbuterol 40 μg", "value": "minimal increase"}, {"measurement": "improvements in perfusion in brain areas relevant to neurodegenerative disorders", "setting": "[9]; clenbuterol 80 and 160 μg", "value": "~25", "unit": "%"}, {"measurement": "increase in cerebral perfusion, precentral gyrus", "setting": "[9]; clenbuterol 80 and 160 μg", "value": "20-40%"}, {"measurement": "cerebral perfusion increase as measured by CBF", "setting": "[9]; clenbuterol doses below 30 μg", "value": "do not produce significant cerebral perfusion increases"}, {"measurement": "cerebral blood flow measured by MRI-ASL (FIG. 2)", "setting": "[9]", "value": "increases"}, {"measurement": "cerebral blood flow from the baseline", "setting": "[9]; patients, single dose clenbuterol 30 to 160 μg and/or nadolol 5 mg, tracked 3 days", "value": "robust global increase"}, {"measurement": "increase in hippocampal perfusion, average", "setting": "[9]; single dose 80 μg clenbuterol, 6 healthy subjects, ROI hippocampus", "value": 25, "unit": "%"}, {"measurement": "cerebral blood flow (CBF) / cerebral perfusion relative to baseline", "setting": "[9]; single dose clenbuterol 160 μg", "value": "global increases; also recorded: robust global increase; also recorded: robust, global increase"}, {"measurement": "cerebral blood flow (CBF) relative to baseline", "setting": "[9]; single dose clenbuterol 160 μg with nadolol 5 mg", "value": "global increases; also recorded: robust global increase"}, {"measurement": "cerebral blood flow (CBF) relative to baseline", "setting": "[9]; single dose clenbuterol 20 to 160 μg, tracked 3 days", "value": "robust global increase"}]}
{"smiles": "CC(C)(C)NCC(O)COc1cccc2c1CC(O)C(O)C2", "note": "(centres unmarked) [nadolol]", "values": [{"measurement": "effect of nadolol on blood potassium decrease induced by Compound 03-5", "setting": "[1]; 3 mg nadolol, cohort D2", "value": "inhibited"}, {"measurement": "effect of nadolol on heart rate increase induced by Compound 03-5", "setting": "[1]; 3 mg nadolol, cohort D2", "value": "inhibited"}, {"measurement": "effect of nadolol on peripheral effects of Compound 03-5 (heart rate, glucose, potassium, tachycardia, tremor, palpitations)", "setting": "[1]; Cohort D1, nadolol 1 mg up to 40 mg, Compound 03-5 3-12 mg", "value": "blocked"}, {"measurement": "effect of nadolol on peripheral effects of Compound 03-5 (heart rate, glucose, potassium)", "setting": "[1]; Cohort D2, nadolol 3 mg, Compound 03-5 1-10 mg", "value": "blocked"}, {"measurement": "effect of nadolol on heart rate increase, hyperglycemia and hypokalemia of Compound 03-5", "setting": "[1]; Cohort D2 and other cohorts, 1 mg nadolol pre-administered, Compound 03-5 oral up to 6 mg", "value": "substantially attenuated"}, {"measurement": "effect of nadolol on effects of Compound 03-5 on blood glucose and potassium, tachycardia, tremor and palpitations", "setting": "[1]; pre-administration of 1 mg nadolol, earlier cohorts", "value": "attenuation"}, {"measurement": "effect of nadolol on pro-cognitive central effects of the β2-AR agonist", "setting": "[2]; low dose nadolol 3 mg", "value": "without inhibiting"}]}
{"smiles": "CC(C)NCC(O)COc1cccc2[nH]ccc12", "note": "(centres unmarked) [pindolol]", "values": [{"measurement": "cerebral blood flow measured by MRI-ASL (FIG. 2)", "setting": "[9]", "value": "lack of increase"}]}
{"smiles": "CC(C)(C)NCC(O)c1ccc(O)c(CO)c1", "note": "(centres unmarked) [salbutamol]", "values": [{"measurement": "effect on VVLT / number of words recalled correctly", "setting": "[7]", "value": "improvements in cognition; also recorded: positive effects"}]}
